Laboratory results reported in patent US10383956B2, “Fluorescent probe for detecting dipeptidyl peptidase IV” (The University of Tokyo, priority 2014, dated 2019).

Columns and labels:
[1] = system: human esophageal squamous cell carcinoma cells (KYSE30, KYSE270, KYSE140, KYSE520, KYSE150, KYSE 1170); test: Live cell imaging in cultured esophageal cancer cells; type: cell-based; conditions: FIG. 5
Procedure: Imaging was conducted over time after adding GP-HMRG (compound 1) to six types of human esophageal squamous cell carcinoma cells.
As human esophageal squamous cell carcinoma cells, two highly differentiated types (KYSE30, KYSE270), two moderately differentiated types (KYSE140, KYSE520), and two lowly differentiated types (KYSE150, KYSE 1170) were cultured for two days at 37° C., 5% CO2 using a μ-Slide 8 well.

[2] = Absorption and fluorescence spectra of probe and HMRG; type: physicochemical
Description: The absorption spectra and fluorescence spectra of compound 1 (GP-HRMG) having a glycine-proline dipeptide site synthesized in Example 1 and hydroxymethyl rhodamine green (HRMG) not having a dipeptide site were each measured.

[3] = target: DPP-IV (Homo sapiens, UniProt P27487); test: DPP-IV assay by fluorescent probe (absorption/fluorescence change, HPLC); type: biochemical
Procedure: Next, DPP-IV was caused to act on compound 1, and the changes in the absorption spectrum and fluorescence spectrum were measured. The results are shown in FIG. 1 (the concentration of compound 1 was 3.5 μM).
Similarly, DPP-IV was caused to act on compound 1, and analysis was conducted by HPLC chromatography.
In addition to compound 1, fluorescence assays were conducted on compounds 2-6 synthesized in the same way in Example 1. For the solution conditions, a solution comprising 18 μL of solution comprising a fluorescent probe concentration of 1.1 μM and 20 mM Tris HCl buffer (pH 7.1), and 2 μL of solution comprising DPP-IV and 20 mM Tris HCl buffer was used. The results obtained by adding DPP-IV to each solution containing a fluorescent probe and measuring the increase in the fluorescence intensity are shown in FIGS. 3 and 4 (excitation wavelength 501 nm, fluorescence wavelength 524 nm). FIG. 3 is a graph snowing the fluorescence intensity increase rate six minutes after DPP-IV addition; FIG. 4 is a graph plotting the time dependence of the fluorescence intensity.

[4] = system: human esophageal cancer surgical specimens and ESD specimens; test: Imaging of human esophageal surgical specimens and ESD specimens; conditions: surgical specimen; probe 50 μM with DPP-IV inhibitor, adhered five minutes; FIG. 10
Procedure: Esophageal specimens from patients who underwent surgery and endoscopic submucosal dissection (ESD) for esophageal cancer were brought immediately after removal in each treatment (meaning surgical specimens and ESD specimens, respectively) to an imaging room, and imaging was conducted over time after spraying the specimens directly with various fluorescent probes (compounds 1-6). For surgical specimens, 10 μL of a DMSO solution (10 mM) of the various fluorescent probes was dissolved in 2 mL of RPMI 1640 (phenol red-free) (final probe concentration 50 μM), and imaging was conducted using a Maestro In Vivo Imaging System Ex after spraying the fluorescent probe on the specimen using a spray tube for an endoscope. For ESD specimens, 3 μL of a DMSO solution (10 mM) of the various fluorescent probes was dissolved in 600 μL of RPMI 1640 (phenol red-free) (final probe concentration 50 μM), and imaging was conducted using a Maestro In Vivo Imaging System Ex after adding the fluorescent probe dropwise to the specimen.
Specifically, gauze impregnated with 5 μL of a DMSO solution (10 mM) of EP-HMRG (compound 2) dissolved in 1 mL of RPMI 1640 (phenol red-free) (final probe concentration 50 μM) and gauze impregnated with 5 μL of a DMSO solution (10 mM) of EP-HMRG (compound 2) and 5 μL of a DPP-IV inhibitor (10 mM) dissolved in 1 mL of RPMI 1640 (phenol red-free) were used. […]

Sequence of DPP-IV (P27487 whole entry, species assumed): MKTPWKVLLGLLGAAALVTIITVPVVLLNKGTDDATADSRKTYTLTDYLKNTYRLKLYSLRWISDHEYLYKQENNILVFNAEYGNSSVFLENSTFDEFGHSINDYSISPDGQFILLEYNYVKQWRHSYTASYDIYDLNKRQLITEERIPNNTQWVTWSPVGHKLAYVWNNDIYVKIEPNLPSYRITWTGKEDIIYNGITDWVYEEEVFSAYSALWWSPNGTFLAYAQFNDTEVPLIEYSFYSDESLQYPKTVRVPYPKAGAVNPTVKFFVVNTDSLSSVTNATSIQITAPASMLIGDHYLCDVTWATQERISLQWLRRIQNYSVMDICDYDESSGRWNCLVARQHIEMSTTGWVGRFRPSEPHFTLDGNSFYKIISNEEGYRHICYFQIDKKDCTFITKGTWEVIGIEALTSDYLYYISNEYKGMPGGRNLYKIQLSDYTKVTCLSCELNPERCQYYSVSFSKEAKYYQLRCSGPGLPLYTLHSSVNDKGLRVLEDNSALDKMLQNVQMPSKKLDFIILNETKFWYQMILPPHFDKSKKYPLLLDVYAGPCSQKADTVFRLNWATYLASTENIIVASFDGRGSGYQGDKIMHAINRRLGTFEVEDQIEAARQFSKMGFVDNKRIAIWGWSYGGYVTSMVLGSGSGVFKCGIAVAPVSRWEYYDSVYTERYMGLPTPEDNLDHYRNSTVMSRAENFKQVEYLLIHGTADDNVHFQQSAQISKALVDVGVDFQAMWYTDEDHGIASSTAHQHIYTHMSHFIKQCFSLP

| Compound | Fluorescence intensity in live cells with DPP-IV inhibitor added ([1]; probe 5 μM + 100 μM DPP-IV inhibitor, 60 minutes) | Fluorescence intensity in live cells over time ([1]; probe 10 μM, observed 60 minutes, six cell lines) | Maximum absorption wavelength [2] | Maximum fluorescence wavelength [2] | pKcycl [2] | Structure form under neutral conditions ([2]; neutral conditions) | Molar extinction coefficient at pH 7.4 [2] | HPLC analysis after reaction with DPP-IV ([3]; FIG. 2) | Change in absorption and fluorescence spectrum on addition of DPP-IV ([3]; compound concentration 3.5 μM, FIG. 1) | Fluorescence intensity in tumor areas with DPP-IV inhibitor [4] | Fluorescence quantum yield [2] |
| --- | --- | --- | --- | --- | --- | --- | --- | --- | --- | --- | --- |
| NCC(=O)N1CCC[C@H]1C(=O)Nc1ccc2c(c1)Oc1cc(N)ccc1C21OCc2ccccc21 (stereo partly drawn) [Compound 1] | fluorescence intensity was lower with the probe with inhibitor added | increase in fluorescence intensity was seen over time in all of the cells | 496 nm | 527 nm | 5.0 | present mainly in a colorless, non-fluorescent, closed-ring structure | 300 M^−1cm^−1 | hydrolyzed and cleaved by DPP-IV | increase in the absorbance and fluorescence intensity |  |  |
| Nc1ccc2c(c1)Oc1cc(NC(=O)[C@@H]3CCCN3C(=O)[C@@H](N)CCC(=O)O)ccc1C21OCc2ccccc21 (stereo partly drawn) [Compound 2] |  |  |  |  |  |  |  |  |  | increase in fluorescence intensity was not seen in tumor areas |  |
| hydroxymethyl rhodamine green [HMRG, reference compound] |  |  | 501 nm | 524 nm | 8.1 |  | 57,000 M^−1cm^−1 |  |  |  | 0.81 |
